# In patent US12115157B2, “3-phenoxyazetidin-1-yl-heteroaryl pyrrolidine derivatives and the use thereof as medicament” (Boehringer Ingelheim International GmbH, priority 2021, dated 2024):
# Experiments:
# human GPR52 = human GPR52 (Homo sapiens (Human), UniProt Q9Y2T5); assay: HTRF assay for direct cAMP measurement; type: cell-based; conditions: CHO-K1 cells stably expressing recombinant human GPR52, mean EC50
# Method: HTRF cAMP assays were performed using commercially available assay kits according to the manufacturer's instructions (cAMP Dynamic 2 Assay Kit; #62AM4PEJ, Cisbio Bioassays, Bedford, MA). An aliquot of CHO-K1 cells stably expressing recombinant human GPR52 was thawed and resuspended in cell buffer (1×PBS (w/o Ca^2+/Mg^2+)) at a density of 4×10^5 cells per mL. Test compounds were solubilized in DMSO to 10 mM stock solutions and serially diluted in DMSO using 6-fold dilutions to generate 8-point dose response curves. These serially diluted samples were then diluted 1:50 in compound dilution buffer (1×PBS (w/o Ca^2+/Mg^2+) containing 0.5 mM IBMX, 0.1% BSA) to achieve a 4× stock. The diluted compounds were transferred (5 μL per well) in duplicate to the 384-well assay plate (Optiplate #6007290, PerkinElmer, Waltham, MA). Both a positive (reference compound) and negative (non-stimulated vehicle) control was included in each assay run in column 23. The cell suspension was subsequently dispensed into the 384-well assay plates at 15 μL per well (6000 cells) such that the compound was diluted to 1×. […] After a one-hour incubation at room temperature, 10 μL of cAMP D2 reagent followed by 10 μL of cryptate reagent (provided in the Cisbio kit) was added to each well. Plates were then incubated at room temperature for one hour prior to reading. Time-resolved fluorescence measurements were collected on an EnVision® HTRF plate reader (PerkinElmer, Waltham, MA). Counts from the plate reader were fit to the cAMP standard curve included on each plate to determine the amount of cAMP in each test well. The % control was calculated based on the […]. Dose-response curves were generated from the cAMP data and analyzed using a nonlinear least squares curve-fitting program to obtain EC50 values.
# human plasma proteins = assay: Human plasma protein binding assay (equilibrium dialysis); type: in vitro ADME; conditions: 1 μM, 2 hours, 37° C.
# Method: Equilibrium dialysis (ED) technique was used to determine the approximate in vitro fractional binding of test compounds to plasma proteins. Dianorm Teflon dialysis cells (micro 0.2) were used. Each dialysis cell consists of a donor and an acceptor chamber, separated by an ultrathin semipermeable membrane with a 5 kDa molecular weight cut-off. Stock solutions for each test compound were prepared in DMSO at 1 mM and serially diluted to obtain a final test concentration of 1 μM. The subsequent dialysis solutions were prepared in plasma (supplemented with NaEDTA as anticoagulant), and aliquots of 200 μL test compound dialysis solution in plasma were dispensed into the donor (plasma) chambers. Aliquots of 200 μL dialysis buffer (100 mM potassium phosphate, pH 7.4) were dispensed into the buffer (acceptor) chamber. Incubation was carried out for 2 hours under rotation at 37° C. for establishing equilibrium.
# At the end of the dialysis period, aliquots obtained from donor and acceptor chambers, respectively, were transferred into reaction tubes, spiked with Internal Standard solution and processed for HPLC-MS/MS analysis. Analyte concentrations were quantified in aliquots of samples by HPLC-MS/MS against external calibration curves.
# Percent bound was calculated using the formula: % bound=(plasma concentration−buffer concentration/plasma concentration)×100
# human hepatocytes = assay: Metabolic stability in human hepatocytes; type: in vitro ADME; conditions: human hepatocyte suspension, 1 μM; predicted hepatic clearance as percentage of hepatic blood flow
# Method: The metabolic degradation of a test compound was assayed in a human hepatocyte suspension. After recovery from cryopreservation, human hepatocytes were diluted in Dulbecco's modified eagle medium (supplemented with 3.5 μg glucagon/500 mL, 2.5 mg insulin/500 mL, 3.75 mg hydrocortisone/500 mL, 5% human serum) to obtain a final cell density of 1.0×10^6 cells/mL or 4.0×10^6 cells/mL, depending on the metabolic turnover rate of the test compound.
# Following a 30 minutes preincubation in a cell culture incubator (37° C., 10% CO2), test compound solution was spiked into the hepatocyte suspension, resulting in a final test compound concentration of 1 μM and a final DMSO concentration of 0.05% (v/v).
# The cell suspension was incubated at 37° C. (cell culture incubator, horizontal shaker) and samples were removed from the incubation after 0, 0.5, 1, 2, 4 and 6 hours. Samples were quenched with acetonitrile (containing internal standard) and pelleted by centrifugation. The supernatant was transferred to a 96-deepwell plate, and prepared for analysis of decline of parent compound by HPLC-MS/MS.
# The percentage of remaining test compound was calculated using the peak area ratio (test compound/internal standard) of each incubation time point relative to the time point 0 peak area ratio. The log-transformed data were plotted versus incubation time, and the absolute value of the slope obtained by linear regression analysis was used to estimate in vitro half-life (T1/2).
# In vitro intrinsic clearance (CLint) was calculated from in vitro T1/2 and scaled to whole liver using a hepatocellularity of 120×10^6 cells/g liver, a human liver per body weight of 25.7 g liver/kg as well as in vitro incubation parameters, applying the following equation: CL_[…]_IN VIVO[mL/min/kg]=(CL_[…][μL/min/10^6 cells]×hepatocellularity[10^6 cells/g liver]×liver factor[g/kg body weight])/1000
# Hepatic in vivo blood clearance (CL) was predicted according to the well-stirred liver model considering an average liver blood flow (QH) of 20.7 mL/min/kg: CL[mL/min/kg]=CL_[…]_IN VIVO[mL/min/kg]×hepatic blood flow[mL/min/kg]/(CL_[…]_IN VIVO[mL/min/kg]+hepatic blood flow[mL/min/kg])
# Results were expressed as percentage of hepatic blood flow: QH[%]=CL[mL/min/kg]/hepatic blood flow[mL/min/kg])
# hERG channel = hERG channel (Homo sapiens (Human), UniProt Q12809); assay: hERG channel assay (whole-cell patch clamp); type: cell-based; conditions: HEK293 cells stably transfected with hERG cDNA
# Sequence of hERG channel (Q12809 whole entry): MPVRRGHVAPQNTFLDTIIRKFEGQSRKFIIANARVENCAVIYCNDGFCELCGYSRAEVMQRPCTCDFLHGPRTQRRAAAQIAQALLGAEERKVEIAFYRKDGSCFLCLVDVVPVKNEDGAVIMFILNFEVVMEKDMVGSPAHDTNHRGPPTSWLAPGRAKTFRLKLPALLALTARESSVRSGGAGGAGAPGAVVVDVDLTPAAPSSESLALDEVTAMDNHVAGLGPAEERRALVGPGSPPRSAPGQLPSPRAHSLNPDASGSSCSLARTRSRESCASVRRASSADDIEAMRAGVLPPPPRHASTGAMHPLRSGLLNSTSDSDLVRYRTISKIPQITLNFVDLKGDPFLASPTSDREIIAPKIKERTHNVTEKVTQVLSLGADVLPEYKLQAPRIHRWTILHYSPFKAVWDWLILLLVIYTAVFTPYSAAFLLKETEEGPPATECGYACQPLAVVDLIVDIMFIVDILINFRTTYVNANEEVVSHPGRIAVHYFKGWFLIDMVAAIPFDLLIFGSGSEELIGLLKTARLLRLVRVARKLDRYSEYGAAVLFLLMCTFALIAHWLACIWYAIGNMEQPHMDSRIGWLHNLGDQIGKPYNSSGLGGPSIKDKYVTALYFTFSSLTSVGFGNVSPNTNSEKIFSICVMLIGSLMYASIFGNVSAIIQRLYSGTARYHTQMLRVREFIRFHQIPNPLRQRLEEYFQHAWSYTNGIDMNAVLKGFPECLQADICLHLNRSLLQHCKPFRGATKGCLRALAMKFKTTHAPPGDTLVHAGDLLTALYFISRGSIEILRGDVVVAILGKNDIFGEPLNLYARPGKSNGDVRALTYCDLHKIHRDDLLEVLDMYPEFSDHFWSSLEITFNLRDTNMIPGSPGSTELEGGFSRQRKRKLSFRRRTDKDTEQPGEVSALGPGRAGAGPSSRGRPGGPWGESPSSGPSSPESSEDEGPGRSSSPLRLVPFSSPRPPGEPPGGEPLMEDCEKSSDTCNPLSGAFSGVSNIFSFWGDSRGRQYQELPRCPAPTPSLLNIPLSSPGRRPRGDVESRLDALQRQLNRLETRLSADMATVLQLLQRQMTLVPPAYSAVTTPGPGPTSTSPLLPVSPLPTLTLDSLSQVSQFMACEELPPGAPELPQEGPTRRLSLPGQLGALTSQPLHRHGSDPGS
# Source text: hERG Channel inhibition of compounds of the present invention was investigated as follows:
# HEK (human embryonic kidney) 293 cells were stably transfected with hERG cDNA. Cells determined for use in patch clamp experiments were cultivated without antibiotic.
# Cells were superfused with a bath solution containing (mM): NaCl (137), KCl (4.0), MgCl2 (1.0), CaCl2(1.8), Glucose (10), HEPES (10), pH 7.4 with NaOH. Patch pipettes were made from borosilicate glass tubing using a pipette and filled with pipette solution containing (mM): K-aspartate (130), MgCl2(5.0), EGTA (5.0), K2ATP (4.0), HEPES (10.0), pH 7.2 with KOH. Resistance of the microelectrodes was typically in the range between 2 MΩ and 5 MΩ.
# Membrane currents were recorded using an EPC-10 patch clamp amplifier (HEKA Electronics, Lambrecht, FRG) and PatchMaster software (HEKA). hERG-mediated membrane currents were recorded at typically 28° C., using the whole-cell configuration of the patch-clamp technique. Transfected HEK293 cells were clamped at a holding potential of −60 mV and hERG-mediated inactivating tail currents were elicited using a pulse pattern with fixed amplitudes (activation/inactivation: 40 mV for 2000 ms; recovery: 120 mV for 2 ms; ramp to 40 mV in 2 ms; inactivating tail current: 40 mV for 50 ms) repeated at 15 s intervals. During each inter-pulse interval 4 pulses scaled down by a factor of 0.2 were recorded for a P/n leak subtraction procedure. Rs compensation was employed up to a level that safely allows recording devoid of ringing. The remaining uncompensated Rs was recorded as well as actual temperature and holding current.
# The concentrations of the test item were applied sequentially on each of the different cells investigated. A steady state level of baseline current was measured for at least 5 sweeps prior to the application of the first test article concentration. The test item was dissolved in DMSO to yield a stock solution of 1000-fold the highest final concentration. This stock was diluted further in DMSO to stock solutions of 1000-fold the remaining final concentrations. Final dilutions in extracellular buffer were prepared freshly from these stocks by a 1:1000 dilution step each before starting the experiments.
# Peak current amplitudes were measured 3 ms after the ramp to +40 mV. For baseline and each concentration, the peak currents of the three last sweeps before application of the next concentration were averaged. Residual currents (I/I0) were calculated for each cell as the fraction of actual average peak current and average baseline peak current. Current inhibition was expressed as […]. Current inhibition for all cells was reported as mean ±SD. If possible, from mean current inhibition data the IC50 was estimated based on the Hill equation using a least squares procedure.
# Sequence of human GPR52 (Q9Y2T5 whole entry): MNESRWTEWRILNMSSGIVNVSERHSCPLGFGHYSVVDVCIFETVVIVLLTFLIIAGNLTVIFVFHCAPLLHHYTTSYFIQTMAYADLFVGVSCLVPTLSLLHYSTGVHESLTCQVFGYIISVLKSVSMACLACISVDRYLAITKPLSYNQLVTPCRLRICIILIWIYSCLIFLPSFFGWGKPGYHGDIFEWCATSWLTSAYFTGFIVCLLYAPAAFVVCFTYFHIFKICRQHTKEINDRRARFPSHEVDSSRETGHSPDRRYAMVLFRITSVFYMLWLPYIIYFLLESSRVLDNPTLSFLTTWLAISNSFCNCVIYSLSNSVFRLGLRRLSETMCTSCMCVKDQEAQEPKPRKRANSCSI
Compound,EC50 (human GPR52) [µM],Hu PPB (human plasma proteins) [% bound],Human HepStab (human hepatocytes) [% QH],IC50 (hERG channel) [µM]
CC(=O)N1C[C@@H](NC(=O)c2nccnc2N2CC(Oc3cc(F)cc(F)c3)C2)C(F)(F)C1 [Example 10b],1.33,,,
CC(=O)N1CC(NC(=O)c2nccnc2N2CC(Oc3cc(F)cc(Cl)c3)C2)C(F)(F)C1 (racemic) [Example 5],0.027,93.2,17.0,> 10
[2H]C([2H])([2H])C(=O)N1CC(NC(=O)c2nccnc2N2CC(Oc3ccc(F)c(F)c3)C2)C(F)(F)C1 (racemic) [Example 4],0.018,79.2,8.5,> 10
CC(=O)N1CC(F)C(NC(=O)c2nsnc2N2CC(Oc3ccc(F)c(F)c3)C2)C1 (stereo not shown) [Example 14b],,,<4.1,
CC(=O)N1CC(NC(=O)c2nccnc2N2CC(Oc3cc(F)cc(OC(F)F)c3)C2)C(F)(F)C1 (racemic) [Example 7],0.102,,15.4,
CC(=O)N1CC2(NC(=O)c3nsnc3N3CC(Oc4cc(F)c(F)c(F)c4)C3)CC1C2 [Example 12],0.024,88.5,5.0,> 10
CC(=O)N1CC[C@H](NC(=O)c2nsnc2N2CC(Oc3cc(F)cc(F)c3)C2)C1 [Example 15b],0.168,,,
CC(=O)N1CC(NC(=O)c2nccnc2N2CC(Oc3cc(F)cc(C(F)F)c3)C2)C(F)(F)C1 (stereo not shown) [Example 6],0.054,87.8,4.8,> 10
"CC(=O)N1CCC(NC(=O)c2nsnc2N2CC(Oc3ccc(F)c(F)c3)C2)C1 (single isomer, unassigned) [Example 16b]",0.21,,,> 10
"CC(=O)N1CC(F)C(NC(=O)c2nsnc2N2CC(Oc3ccc(F)c(F)c3)C2)C1 (single isomer, unassigned) [Example 14a]",1.17,,,
CS(=O)(=O)N1CC(NC(=O)c2nccnc2N2CC(Oc3cc(F)c(F)c(F)c3)C2)C(F)(F)C1 (racemic) [Example 9],0.019,93.4,5.8,> 10
CC(=O)N1CC(NC(=O)c2nccnc2N2CC(Oc3ccc(F)c(Cl)c3)C2)C(F)(F)C1 (racemic) [Example 1],0.015,92.6,11.1,> 10
CC(=O)N1CCC(NC(=O)c2nsnc2N2CC(Oc3ccc(F)c(F)c3)C2)C1 (stereo not shown) [Example 16a],0.011,86.2,<4.1,> 10
O=C(NC1CNCC1(F)F)c1nccnc1N1CC(Oc2cc(F)c(F)c(F)c2)C1 (racemic) [Intermediate H-3],0.378,88.2,27.7,
CCC(=O)N1CC(NC(=O)c2nccnc2N2CC(Oc3ccc(F)c(F)c3)C2)C(F)(F)C1 (stereo not shown) [Example 2],0.024,89.9,21.3,6.6
"CC(=O)N1CC(F)C(NC(=O)c2nsnc2N2CC(Oc3ccc(F)c(F)c3)C2)C1 (single isomer, unassigned) [Example 14b]",0.011,89.7,,> 10
